Among the data in patent publication US9453014B2, “Cyclic amide derivatives as inhibitors of 11-β-hydroxysteroid dehydrogenase and uses thereof” (CONNEXIOS LIFE SCIENCES PVT. LTD., priority 2011, dated 2016) are IC50 values, retold here.

Counter-ions that a name gives are not always drawn.

As a reminder, the IC50 is the concentration at which inhibition is half-maximal.

T1 sequence (P28845 whole entry): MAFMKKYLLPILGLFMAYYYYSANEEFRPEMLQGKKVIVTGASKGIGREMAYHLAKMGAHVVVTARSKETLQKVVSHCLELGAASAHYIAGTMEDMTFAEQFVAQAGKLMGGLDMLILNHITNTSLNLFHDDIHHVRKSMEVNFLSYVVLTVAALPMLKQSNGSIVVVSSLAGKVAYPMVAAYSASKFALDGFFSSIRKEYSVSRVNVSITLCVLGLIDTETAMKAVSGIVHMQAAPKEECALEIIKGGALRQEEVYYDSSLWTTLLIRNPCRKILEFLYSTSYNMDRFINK

This test addresses T1, human full length HSD11 β 1 (Homo sapiens, UniProt P28845).
T1 construct: transient expression of human full length HSD11 β 1 expression vector; host or cells: CHO cells (transient transfection)
Briefly: In Vitro HSD11β1 Inhibition Assay. To be noted: CHO cells transiently expressing human HSD11β1; 200 nM cortisone+500 uM NADPH overnight; cortisone to cortisol by LC/MS-MS; read-out: 11βHSD1 (IC50). The class given is cell-based. As for the experimental part:
In Vitro HSD11β1 Inhibition Assay:
CHO cells were maintained in Dulbecco's modified Eagle's medium/nutrient mixture F-12 containing 5% fetal bovine serum (v/v) and 2 mM glutamine. Cells were cultured at 37° C. with 5% CO2. For transient expression of human full length HSD11 β 1 expression vector (OriGene Technologies), cells were seeded at a density of 2×10^5 cells/well in a 6-well plate. Transfection was done using Turbofectin8 reagent (OriGene Technologies), according to the protocol provided with the reagent. After 24 hours post-transfection, cells were trypsinized and pooled together before they were re-seeding to 96-well plate at a density of 40000 cells/well. 24 hours after re-seeding, cells were incubated with 200 nM cortisone+500 uM NADPH (or along with small molecule inhibitors) overnight. The enzymatic activity or inhibition of enzyme activity was measured by estimating the conversion of cortisone to cortisol by LC/MS-MS method. The IC50 in nM was calculated from an 8 point log scale of concentration versus inhibition.
Regarding `O=C(O)C1CCCC2C1CCCN2C(=O)CC(c1cccs1)c1c[nH]c2cccc(Cl)c12` (centres unmarked) [Compound 206, 1-[3-(4-chloro-1H-indol-3-yl)-3-(thiophen-2-yl)propanoyl]decahydroquinoline-5-carboxylic acid], the concentration for half-maximal inhibition (IC50) is below 100 nM.
Under `Cc1cccc2c1c(C(C)CC(=O)N1CCCC3C(C(=O)O)CCCC31)cn2C` (centres unmarked) [Compound 207, 1-[3-(1,4-dimethyl-1H-indol-3-yl)butanoyl]decahydroquinoline-5-carboxylic acid] stands above 250 nM.
Under `CC1CCC2CCCCC2N1C(=O)CCc1c[nH]c2ccccc12` (centres unmarked) [Compound 38, 3-(1H-indol-3-yl)-1-(2-methyloctahydroquinolin-1(2H)-yl)propan-1-one] stands 150 to 200 nM; under `CC(C)C(CC(=O)N1CCC(C(=O)O)C2CCCCC21)c1c[nH]c2ccccc12` (centres unmarked) [Example 107, 1-[3-(1H-indol-3-yl)-4-methylpentanoyl]decahydroquinoline-4-carboxylic acid sodium salt], above 250 nM.
Consider `CC(CC(=O)N1CCCC2C(C(=O)O)CCCC21)c1c[nH]c2cccc(-c3ccc(F)cc3)c12` (centres unmarked) [Compound 254, 1-{3-[4-(4-fluorophenyl)-1H-indol-3-yl]butanoyl}decahydroquinoline-5-carboxylic acid], for which the IC50 is above 250 nM.
In the case of `CC(CC(=O)N1C(C)CCC2C(C(=O)O)CCCC21)c1c[nH]c2cccc(-c3cccs3)c12` (centres unmarked) [Compound 232, 2-methyl-1-{3-[4-(thiophen-2-yl)-1H-indol-3-yl]butanoyl}decahydroquinoline-5-carboxylic acid], the IC50 lay within 150 to 200 nM.
With `O=C(O)C1CCN(C(=O)CC(c2ccccc2)n2nnc3ccccc32)C2CCCCC12` (single isomer, unassigned) [Example 181, 1-[3-(1H-benzotriazol-1-yl)-3-phenylpropanoyl]decahydroquinoline-4-carboxylic acid] the figure was above 250 nM; with `O=C(O)C1CCCC2C1CCCN2C(=O)CSc1c[nH]c2cccc(C3CC3)c12` (centres unmarked) [Compound 260, 1-{[(4-cyclopropyl-1H-indol-3-yl)sulfanyl]acetyl}decahydroquinoline-5-carboxylic acid], above 250 nM.
Under `CC(C)C(CC(=O)N1CCC(C(=O)O)C2CCCCC21)c1c[nH]c2ncccc12` (centres unmarked) [Example 163, 1-[4-methyl-3-(1H-pyrrolo[2,3-b]pyridin-3-yl)pentanoyl]decahydro quinoline-4-carboxylic acid] stands above 250 nM; under `CC(CC(=O)N1CCCC2(CO)CCCCC12)c1c[nH]c2ncccc12` (centres unmarked) [Example 146, 1-[4a-(hydroxymethyl)octahydroquinolin-1(2H)-yl]-3-(1H-pyrrolo[2,3-b]pyridin-3-yl)butan-1-one], above 250 nM.
Under `CC(C)C(CC(=O)N1CCCC2CCCCC21)c1c[nH]c2ccccc12` (single isomer, unassigned) [Example 118, 3-(1H-indol-3-yl)-4-methyl-1-(octahydroquinolin-1(2H)-yl)pentan-1-one] stands below 100 nM; under `CC(CC(=O)N1CCCC2C(C(=O)O)CCCC21)c1c[nH]c2cccc(-c3ccccn3)c12` (centres unmarked) [Compound 238, 1-{3-[4-(pyridin-2-yl)-1H-Indol-3-yl]butanoyl}decahydroquinoline-5-carboxylic acid], above 250 nM; under `CC1(O)CCN(C(=O)CCc2c[nH]c3ccccc23)C2CCCCC21` (centres unmarked) [Compound 34, 1-(4-hydroxy-4-methyloctahydroquinolin-1(2H)-yl)-3-(1H-indol-3-yl)propan-1-one], above 250 nM.
Turning to `Cn1cc(CCC(=O)N2CCCC3CCCCC32)c2cccnc21` (centres unmarked) [Example 87, 3-(1-methyl-1H-pyrrolo[2,3-b]pyridin-3-yl)-1-(octahydroquinolin-1 (2H)-yl)propan-1-one], the half-maximal inhibitory concentration (IC50) was below 100 nM.
Under `CC(CC(=O)N1CCCC2(C)CCCCC12)c1c[nH]c2cccc(F)c12` (centres unmarked) [Example 114, 3-(4-fluoro-1H-indol-3-yl)-1-(4a-methyloctahydroquinolin-1(2H)-yl)butan-1-one] stands below 100 nM.
With `COC(=O)C1CCN(C(=O)CCc2c[nH]c3ccccc23)C2CCCCC12` (centres unmarked) [Compound 49, methyl 1-[3-(1H-indol-3-yl)propanoyl]decahydroquinoline-4-carboxylate] the figure was above 250 nM.
Under `O=C(CCc1c[nH]c2cc(F)ccc12)N1CCCC2CCCCC21` (centres unmarked) [Compound 39, 3-(6-fluoro-1H-indol-3-yl)-1-(octahydroquinolin-1(2H)-yl)propan-1-one] stands above 250 nM; under `CC(CC(=O)N1CCCC2CCCCC21)c1c[nH]c2ncccc12` (single isomer, unassigned) [Example 144, 1-(octahydroquinolin-1(2H)-yl)-3-(1H-pyrrolo[2,3-b]pyridin-3-yl)butan-1-one], above 250 nM.
Turning to `CC(CC(=O)N1CCCC2C(C(=O)O)CCCC21)c1c[nH]c2cccc(C3CC3)c12` (single isomer, unassigned) [Compound 195, 1-[3-(4-cyclopropyl-1H-indol-3-yl)butanoyl]decahydroquinoline-5-carboxylic acid], the IC50 is below 100 nM.
For the compound `N#CC(CC(=O)N1CCCC2CCCCC21)c1c[nH]c2ccccc12` (centres unmarked) [Example 109, 2-(1H-indol-3-yl)-4-(octahydroquinolin-1(2H)-yl)-4-oxobutanenitrile], the IC50 was above 250 nM.
On to `CC(CC(=O)N1CCCC2C(C(=O)O)CCCC21)c1c[nH]c2cccc(Cl)c12` (centres unmarked) [Compound 193, 1-[3-(4-chloro-1H-indol-3-yl)butanoyl]decahydroquinoline-5-carboxylic acid], for which the IC50 was in the range of 100 to 150 nM.
Under `CC12CCCCC1N(C(=O)CCc1c[nH]c3ccccc13)CCC2` (single isomer, unassigned) [Compound 56, 3-(1H-indol-3-yl)-1-(4a-methyloctahydroquinolin-1(2H)-yl)propan-1-one] stands 150 to 200 nM.
Under `O=C(O)C1CCN(C(=O)CC(c2ccc(F)cc2)c2c[nH]c3cccc(F)c23)C2CCCCC12` (single isomer, unassigned) [Compound 225, 1-[3-(4-fluoro-1H-indol-3-yl)-3-(4-fluorophenyl)propanoyl]decahydroquinoline-4-carboxylic acid] stands below 100 nM; under `CC(C)C(CC(=O)N1CCOC2CCCCC21)c1c[nH]c2ccccc12` (centres unmarked) [Example 133, 3-(1H-indol-3-yl)-4-methyl-1-(octahydro-4H-1,4-benzoxazin-4-yl)pentan-1-one], above 250 nM.
With `Cn1cc(C(C)(C)CC(=O)N2CCOC3CCCCC32)c2ccccc21` (centres unmarked) [Compound 71, 3-methyl-3-(1-methyl-1H-indol-3-yl)-1-(octahydro-4H-1,4-benzoxazin-4-yl)butan-1-one] the figure was 150 to 200 nM; with `CC(CC(=O)N1CCCC2C(C(=O)O)CCCC21)c1c(C#N)n(C)c2cccc(C3CC3)c12` (centres unmarked) [Compound 258, 1-[3-(2-cyano-4-cyclopropyl-1-methyl-1H-indol-3-yl)butanoyl]decahydroquinoline-5-carboxylic acid], above 250 nM; with `Cc1ccc(-c2cccc3[nH]cc(C(C)CC(=O)N4CCCC5C(C(=O)O)CCCC54)c23)o1` (centres unmarked) [Compound 236, 1-{3-[4-(5-methylfuran-2-yl)-1H-indol-3-yl]butanoyl}decahydroquinoline-5-carboxylic acid], 100 to 150 nM.
Turning to `O=C(CCc1c[nH]c2ccccc12)N1CCCC2=C1CCCC2` [Compound 48, 1-(3,4,5,6,7,8-hexahydroquinolin-1(2H)-yl)-3-(1H-indol-3-yl)propan-1-one], the 50% inhibitory concentration (IC50) is above 250 nM.
On to `CC(CC(=O)N1CCCC2C(c3nnn[nH]3)CCCC21)c1c[nH]c2cccc(C3CC3)c12` (centres unmarked) [Compound 240, 3-(4-cyclopropyl-1H-indol-3-yl)-1-[5-(1H-tetrazol-5-yl)octahydroquinolin-1(2H)-yl]butan-1-one], for which the IC50 was above 250 nM.
With `O=C(O)C1CCN(C(=O)CC(c2ccccc2)c2c[nH]c3cc(F)ccc23)C2CCCCC12` (single isomer, unassigned) [Example 159, 1-[3-(6-fluoro-1H-indol-3-yl)-3-phenylpropanoyl]decahydroquinoline-4-carboxylic acid] the figure was below 100 nM.
With `CC(CC(=O)N1CCCC2C(C(=O)O)CCCC21)c1c[nH]c2nccc(C3CC3)c12` (centres unmarked) [Compound 205, 1-[3-(4-cyclopropyl-1H-pyrrolo[2,3-b]pyridin-3-yl)butanoyl]decahydroquinoline-5-carboxylic acid] the figure was above 250 nM; with `CC(CC(=O)N1CCCC2CC(C(=O)O)CCC21)c1c[nH]c2cccc(-c3ccco3)c12` (centres unmarked) [Compound 229, 1-{3-[4-(furan-2-yl)-1H-indol-3-yl]butanoyl}decahydroquinoline-6-carboxylic acid], 100 to 150 nM; with `O=C(CCc1c[nH]c2ccc(F)cc12)N1CCCC2CCCCC21` (centres unmarked) [Compound 4, 3-(5-fluoro-1H-indol-3-yl)-1-(octahydroquinolin-1(2H)-yl)propan-1-one], 100 to 150 nM.
Under `CC(CC(=O)N1CCCC2C(C(=O)O)CCCC21)c1c(C#N)[nH]c2cccc(C3CC3)c12` (centres unmarked) [Compound 252, 1-[3-(2-cyano-4-cyclopropyl-1H-indol-3-yl)butanoyl]decahydroquinoline-5-carboxylic acid] stands above 250 nM.
With `CC(CC(=O)N1CCOC2CCCCC21)c1c[nH]c2cccc(F)c12` (centres unmarked) [Example 136, 3-(4-fluoro-1H-indol-3-yl)-1-(octahydro-4H-1,4-benzoxazin-4-yl)butan-1-one], the 50% inhibitory concentration (IC50) is above 250 nM.
